The text below walks through data of patent publication US20150274639A1, “METHODS OF USE FOR COMPOSITIONS COMPRISING A BIOCIDAL POLYAMINE” (Curza Global, LLC, priority 2013, published 2015).

Converted amounts (≈) assume the structure as drawn. “And” between values parts separate entries of the source, which are not always exact repeats. Equal values may be shown once.

The subject of test [1] is A. baumannii biofilm. Briefly: EBEC, high number biofilms on PEEK membranes (10^9 to 10^2 CFU/PEEK membrane in 24 hours). Format: cell-based, Acinetobacter baumannii. Particulars: for EBEC relative to MIC against A. baumannii: EBEC greater than the MIC by this factor; for EBEC, A. baumannii: Table 4. The procedure:
In addition to determining the MIC and the MBEC of polyamine compounds against planktonic bacteria and low number biofilms, our group wanted to determine the efficacy of polyamine compounds against high number biofilms. To do so, biofilms were grown on the surface of polyetheretherketone (PEEK) membranes using a membrane biofilm reactor. This reactor is similar to the CDC biofilm reactor, but rather than growing biofilms on coupon surfaces, the reactor was modified to hold PEEK membranes. In short, to grow biofilms within this system, 500 mL of brain heart infusion (BHI) broth were inoculated with 1 mL of a 0.5 McFarland. The reactor was placed on a hot plate set at 34° C. and the bacteria were grown under batch conditions for 24 hours. Following this protocol, biofilms typically grow to 10^9 CFU/PEEK membrane. […] A solution of 10% BHI was then flowed through the reactor at a rate of 6.94 mL/min for an additional 24 hours. PEEK membranes were then removed and placed into 2 mL of CAMHB that contained a desired concentration of polyamine compound or antibiotic. The EBEC was defined as the concentration of antimicrobial required to reduce a biofilm from approximately 10^9 CFU/PEEK membrane to approximately 10^2 CFU/PEEK membrane in a 24-hour period.
In addition to determining the MIC and the MBEC of compounds against planktonic bacteria and low number biofilms, the efficacy of the compounds of the invention against high number biofilms is determined. To do so, biofilms are grown on the surface of PEEK membranes using a membrane biofilm reactor (Williams, D. L., Haymond, B. S. & Bloebaum, R. D. Use of delrin plastic in a modified CDC biofilm reactor. Res J Microbiol 6, 425-429 (2011); Williams, D. L., Woodbury, K. L., Haymond, B. S., Parker, A. E. & Bloebaum, R. D. A modified CDC biofilm reactor to produce mature biofilms on the surface of PEEK membranes for an in vivo animal model application. Curr Microbiol 62, 1657-1663 (2011); Williams, D. L. et al., In Vivo Efficacy of a Silicone—Cationic Steroid Antimicrobial Coating to Prevent Implant-Related Infection. Biomaterials 33, 8641-8656 (2012); Williams, D. L. et al., Experimental model of biofilm implant-related osteomyelitis to test combination biomaterials using biofilms as initial inocula. J Biomed Mat Res A 100, 1888-1900 (2012)). This reactor is similar to the CDC biofilm reactor, but rather than growing biofilms on coupon surfaces, the reactor was modified to hold PEEK membranes. In short, to grow biofilms within this system, 500 mL of brain heart infusion (BHI) broth is inoculated with 1 mL of a 0.5 McFarland. The reactor is placed on a hot plate set at 34° C. and the bacteria grown under batch conditions for 24 hours. A solution of 10% BHI will then be flowed through the reactor at a rate of 6.94 mL/min for an additional 24 hours. Following this protocol, biofilms typically grow to 10^9 CFU/PEEK membrane. PEEK membranes is removed and placed into 2 mL of CAMHB that contain a desired concentration of the test compound. The EBEC is defined as the concentration of antimicrobial required to reduce a biofilm from approximately 10^9 CFU/PEEK membrane to approximately 10^2 CFU/PEEK membrane in a 24-hour period.
EBEC data were collected to determine the efficacy of CZ-52, CZ-58 and traditional antibiotics against high number biofilms containing approximately 10^9 CFU grown on the surface of a polyetheretherketone (PEEK) membrane. […] In contrast, at 250 μg/mL CZ-52 was able to reduce MRSA biofilms by greater than 7 log10 units in a 24-hour period. Although the MIC of CZ-58 was lower against MRSA compared to A. baumannii, CZ-58 had greater activity against biofilms of A. baumannii than against MRSA biofilms in the EBEC assay. […] Although the MIC of CZ-58 was “high” compared to MICs of traditional antibiotics, the efficacy against biofilms was promising.

Test [2] deals with A. baumannii biofilm. The test is described as above. Particulars: Table 3B titled MICs, group head missing, values match EBEC; for MIC: Acinetobacter baumannii. Format: cell-based, Acinetobacter baumannii.
A further test relates to MRSA. Briefly: MIC in CAMHB, 96-well plate (10^5 to 10^2 CFU/mL in 24 hours). Format: cell-based, methicillin-resistant Staphylococcus aureus. Particulars: Staphylococcus aureus, MRSA. The procedure:
(§1) To determine the MIC of polyamine compounds, the protocol described herein was used.
In brief, a 0.5 McFarland of each bacterial isolate was made. A 0.5 McFarland is a measure of turbidity in a liquid sample that contains approximately 1×10̂^8 CFU/mL. The 0.5 McFarland standard was diluted in cation adjusted Mueller Hinton Broth (CAMHB), and […], of broth were added to a well of a 96-well plate. In addition, 50 μL of CAMHB that contained a desired concentration of antimicrobial were also added to the well for a final volume of 100 and a final concentration of approximately 5×10^4 CFU/well (which equated to approximately 5×10^5 CFU/mL). Each well contained a desired amount of polyamine compound in order to experimentally determine the MIC. Each 96-well plate was incubated at 37° C. for 24 hours. The contents of each well were plated on tryptic soy agar (TSA). TSA plates were incubated for 37° C. for 24 hours after which the number of CFU were counted and used to calculate the CFU/mL that remained after exposure to varying concentrations of compound. This procedure was repeated n=8 times for each concentration of antimicrobial. […]

Another test deals with P. aeruginosa. The test is described as above. It is filed as cell-based. Particulars: Pseudomonas aeruginosa. As to the method:
as §1
In brief, a 0.5 McFarland of each bacterial isolate was made. A 0.5 McFarland is a measure of turbidity in a liquid sample that contains approximately 1×10̂^8 CFU/mL. The 0.5 McFarland standard was diluted in cation adjusted Mueller Hinton Broth (CAMHB), and […], of broth were added to a well of a 96-well plate. In addition, 50 μL of CAMHB that contained a desired concentration of antimicrobial were also added to the well for a final volume of 100 and a final concentration of approximately 5×10^4 CFU/well (which equated to approximately 5×10^5 CFU/mL). Each well contained a desired amount of polyamine compound in order to experimentally determine the MIC. Each 96-well plate was incubated at 37° C. for 24 hours. The contents of each well were plated on tryptic soy agar (TSA). TSA plates were incubated for 37° C. for 24 hours after which the number of CFU were counted and used to calculate the CFU/mL that remained after exposure to varying concentrations of compound. This procedure was repeated n=8 times for each concentration of antimicrobial.

Another test has as its system MRSA biofilm. Briefly: MBEC, MBEC Inoculation Tray by Innovotech (to 10^2 CFU/peg in 24 hours). It is filed as cell-based, methicillin-resistant Staphylococcus aureus. Particulars: for MBEC, MRSA: Table 4; for MIC: Staphylococcus aureus, MRSA, Table 3A titled MICs, group head missing, values match MBEC.
[3] abbreviates: Table 3A, first P. aeruginosa column.

Consider “Polymyxin B sulfate [reference compound]”, for which, in the test on A. baumannii biofilm [1], the “EBEC relative to MIC against A. baumannii” value is 1,000 ×; the “EBEC, A. baumannii” value is 1,000 μg/mL and 722 μM. Besides, the “MIC, A. baumannii” value with A. baumannii biofilm [2] was 1,000 μg/mL.
As for `NCCCNCCCNCc1cc(CNCCCNCCCN)cc(-c2ccccc2)c1` [CZ-58], the “EBEC relative to MIC against A. baumannii” value in the test with A. baumannii biofilm [1] was roughly 13 ×. Moreover, the “EBEC, A. baumannii” value with A. baumannii biofilm [1] was 400 μg/mL and 908 μM. The “activity against A. baumannii biofilms relative to MRSA biofilms” value in the test on A. baumannii biofilm [1] (greater activity against A. baumannii biofilms) was 10 fold. Besides, the MIC in the test with MRSA (Table 4) was 6 µg/mL and 13.6 µM; against MRSA (Table 5, class symbols), less than 50 µM; in the test with P. aeruginosa (Table 5, class symbols), less than 50 µM. The “MBEC, MRSA” value in the test on MRSA biofilm is 30 μg/mL and 68 μM.
On to `NCCCNCCCNCc1cccc(CNCCCNCCCN)c1` [CZ-25], for which, in the test on A. baumannii biofilm [1], the “EBEC, A. baumannii” value was ~7,500 μg/mL. Moreover, the MIC was 40 µg/mL in the test on MRSA (Table 3A, first MRSA column); 40 µg/mL and 110 µM with MRSA (Table 4); greater than 5000 µg/mL against A. baumannii biofilm [2]; 50 µg/mL against P. aeruginosa (setting [3]); greater than 100 µM with P. aeruginosa (Table 5, class symbols); 25 µg/mL (≈ 68.6 µM) in the test with MRSA biofilm. In the test on MRSA biofilm, the “MBEC, MRSA” value was 25 μg/mL and 69 μM.
Turning to `NCCCNCCCNCc1cc(CNCCCNCCCN)cc(CNCCCNCCCN)c1` [CZ-52], the “EBEC, A. baumannii” value in the test with A. baumannii biofilm [1] was ~7,000 μg/mL and ~14,000 μM. Also, the MIC against MRSA (Table 3A, first MRSA column) is 3 µg/mL; in the test with MRSA (Table 4), 3 µg/mL and 6 µM; in the test on A. baumannii biofilm [2], greater than 5000 µg/mL; against P. aeruginosa (setting [3]), 17 µg/mL; with MRSA biofilm it was 20 µg/mL (≈ 39.4 µM). Moreover, the “MBEC, MRSA” value in the test with MRSA biofilm is 20 μg/mL and 40 μM.
